In patent US6525001B1, “Substituted pyrimidine and pyridine herbicides” (Mid-American Commercialization Corporation, priority 1997, dated 2003):

Tests used:
Format in all cases: in vivo
Parameters in all cases: key: 0 is no effect; 10 is complete control
[1] = tested on: bedstraw (Galium aparine); assay: Test B pre-/postemergence
Excerpt: (§1) Seeds of bedstraw (Galium aparine), blackgrass (Alopecurus myosuroides), broadleaf signalgrass (Brachiaria decumbens), cocklebur (Xanthium strumarium), corn (Zea mays), crabgrass (Digitaria sanguinalis), giant foxtail (Setaria faberii), lambsquarters (Chenopodium album), momingglory (Ipomoea hederacea), pigweed (Amaranthus retroflexus), rape (Brassica napus), soybean (Glycine max), sugar beet (Beta vulgaris), velvetleaf (Abutilon theophrasti), wheat (Triticum aestivum), wild oat (Avena fatua) and purple nutsedge (Cyperus rotundus) tubers were planted and treated preemergence with test chemicals formulated in a non-phytotoxic solvent mixture which included a surfactant.
(§2) At the same time, these crop and weed species were also treated with postemergence applications of test chemicals formulated in the same manner. Plants ranged in height from 2 to 18 cm (1- to 4-leaf stage) for postemergence treatments. Plant species in the flood test consisted of rice (Oryza sativa), smallflower flatsedge (Cyperus difformis), duck salad (Heteranthera limosa) and bamyardgrass (Echinochloa crus-galli) grown to the 2-leaf stage for testing. Treated plants and controls were maintained in a greenhouse for twelve to sixteen days, after which all species were compared to controls and visually evaluated. Plant response ratings, summarized in Table B, are based on a scale of 0 to 10 where 0 is no effect and 10 is complete control. A dash (−) response means no test result.

[2] = tested on: blackgrass (Alopecurus myosuroides); assay: Test B pre-/postemergence
Excerpt: as §1, §2

[3] = tested on: broadleaf signalgrass (Brachiaria decumbens); assay: Test B pre-/postemergence
Excerpt: as §1, §2

[4] = tested on: cocklebur (Xanthium strumarium); assay: Test B pre-/postemergence
Excerpt: as §1, §2

[5] = tested on: corn (Zea mays); assay: Test B pre-/postemergence
Excerpt: as §1, §2

[6] = tested on: crabgrass (Digitaria sanguinalis); assay: Test B pre-/postemergence
Excerpt: as §1, §2

[7] = tested on: giant foxtail (Setaria faberii); assay: Test B pre-/postemergence
Excerpt: as §1, §2

[8] = tested on: momingglory (Ipomoea hederacea); assay: Test B pre-/postemergence
Excerpt: as §1, §2

[9] = tested on: pigweed (Amaranthus retroflexus); assay: Test B pre-/postemergence
Excerpt: as §1, §2

[10] = tested on: rape (Brassica napus); assay: Test B pre-/postemergence
Excerpt: as §1, §2

[11] = tested on: soybean (Glycine max); assay: Test B pre-/postemergence
Excerpt: as §1, §2

[12] = tested on: sugar beet (Beta vulgaris); assay: Test B pre-/postemergence
Excerpt: as §1, §2

[13] = tested on: velvetleaf (Abutilon theophrasti); assay: Test B pre-/postemergence
Excerpt: as §1, §2

[14] = tested on: wheat (Triticum aestivum); assay: Test B pre-/postemergence
Excerpt: as §1, §2

[15] = tested on: wild oat (Avena fatua); assay: Test B pre-/postemergence
Excerpt: as §1, §2

[16] = tested on: bamyardgrass (Echinochloa crus-galli); assay: Test B flood test
Procedure: as §2

[17] = tested on: duck salad (Heteranthera limosa); assay: Test B flood test
Procedure: as §2

[18] = tested on: rice (Oryza sativa); assay: Test B flood test
Procedure: as §2

[19] = tested on: smallflower flatsedge (Cyperus difformis); assay: Test B flood test
Procedure: as §2

[20] = Preemergence, Rate 62 g/ha, scale of 0 to 10
[21] = Rate 62 g/ha, Postemergence (flood test)
[22] = Rate 125 g/ha, Postemergence section (flood test species)
[23] = Rate 250 g/ha, Postemergence (flood test species)

CCc1cnc(-n2ccc(C(F)(F)F)n2)nc1C(=O)c1cccc(C#N)c1 [Compound 72]
Plant response rating, Bedstraw [1, 20]: 0
Plant response rating, Bedstraw ([1]; Rate 250 g/ha, Postemergence): 4
Plant response rating, Bedstraw ([1]; Rate 250 g/ha, Preemergence): 5
Plant response rating, Blackgrass [2, 20]: 1
Blackgrass plant response rating ([2]; Rate 62 g/ha, Postemergence): 4
Blackgrass plant response rating ([2]; Rate 125 g/ha, Postemergence): 5
Plant response rating, Blackgrass ([2]; Rate 125 g/ha, Preemergence): 1
Plant response rating, Blackgrass ([2]; Rate 250 g/ha, Postemergence): 5
Plant response rating, Blackgrass ([2]; Rate 250 g/ha, Preemergence): 4
B. signalgrass plant response rating ([3]; Rate 62 g/ha, Postemergence): 2
B. signalgrass plant response rating ([3]; Rate 62 g/ha, Preemergence): 1
B. signalgrass plant response rating ([3]; Rate 125 g/ha, Postemergence): 4
Plant response rating, B. signalgrass ([3]; Rate 125 g/ha, Preemergence): 2
Plant response rating, B. signalgrass ([3]; Rate 250 g/ha, Postemergence): 6
Plant response rating, B. signalgrass ([3]; Rate 250 g/ha, Preemergence): 7
Plant response rating, Cocklebur [4, 20]: 0
Cocklebur plant response rating ([4]; Rate 62 g/ha, Postemergence): 3
Cocklebur plant response rating ([4]; Rate 125 g/ha, Postemergence): 4
Plant response rating, Cocklebur ([4]; Rate 125 g/ha, Preemergence): 0
Plant response rating, Cocklebur ([4]; Rate 250 g/ha, Postemergence): 4
Plant response rating, Cocklebur ([4]; Rate 250 g/ha, Preemergence): 0
Plant response rating, Corn [5, 20]: 3
Corn plant response rating ([5]; Rate 62 g/ha, Postemergence): 2
Corn plant response rating ([5]; Rate 125 g/ha, Postemergence): 3
Plant response rating, Corn ([5]; Rate 125 g/ha, Preemergence): 4
Plant response rating, Corn ([5]; Rate 250 g/ha, Postemergence): 5
Plant response rating, Corn ([5]; Rate 250 g/ha, Preemergence): 5
Plant response rating, Crabgrass [6, 20]: 6
Crabgrass plant response rating ([6]; Rate 62 g/ha, Postemergence): 4
Crabgrass plant response rating ([6]; Rate 125 g/ha, Postemergence): 6
Plant response rating, Crabgrass ([6]; Rate 125 g/ha, Preemergence): 9
Plant response rating, Crabgrass ([6]; Rate 250 g/ha, Postemergence): 8
Plant response rating, Crabgrass ([6]; Rate 250 g/ha, Preemergence): 9
Plant response rating, Giant foxtail [7, 20]: 5
Giant foxtail plant response rating ([7]; Rate 62 g/ha, Postemergence): 5
Giant foxtail plant response rating ([7]; Rate 125 g/ha, Postemergence): 6
Plant response rating, Giant foxtail ([7]; Rate 125 g/ha, Preemergence): 5
Plant response rating, Giant foxtail ([7]; Rate 250 g/ha, Postemergence): 7
Plant response rating, Giant foxtail ([7]; Rate 250 g/ha, Preemergence): 7
Plant response rating, Morningglory [8, 20]: 2
Morningglory plant response rating ([8]; Rate 125 g/ha, Postemergence): 4
Plant response rating, Morningglory ([8]; Rate 125 g/ha, Preemergence): 3
Plant response rating, Morningglory ([8]; Rate 250 g/ha, Postemergence): 4
Plant response rating, Morningglory ([8]; Rate 250 g/ha, Preemergence): 8
Plant response rating, Redroot pigweed [9, 20]: 7
Redroot pigweed plant response rating ([9]; Rate 62 g/ha, Postemergence): 8
Redroot pigweed plant response rating ([9]; Rate 125 g/ha, Postemergence): 9
Plant response rating, Redroot pigweed ([9]; Rate 125 g/ha, Preemergence): 9
Plant response rating, Redroot pigweed ([9]; Rate 250 g/ha, Postemergence): 9
Plant response rating, Redroot pigweed ([9]; Rate 250 g/ha, Preemergence): 9
Plant response rating, Rape [10, 20]: 4
Rape plant response rating ([10]; Rate 62 g/ha, Postemergence): 3
Rape plant response rating ([10]; Rate 125 g/ha, Postemergence): 7
Plant response rating, Rape ([10]; Rate 125 g/ha, Preemergence): 5
Plant response rating, Rape ([10]; Rate 250 g/ha, Postemergence): 7
Plant response rating, Rape ([10]; Rate 250 g/ha, Preemergence): 9
Plant response rating, Soybean [11, 20]: 0
Soybean plant response rating ([11]; Rate 62 g/ha, Postemergence): 2
Soybean plant response rating ([11]; Rate 125 g/ha, Postemergence): 2
Plant response rating, Soybean ([11]; Rate 125 g/ha, Preemergence): 3
Plant response rating, Soybean ([11]; Rate 250 g/ha, Postemergence): 5
Plant response rating, Soybean ([11]; Rate 250 g/ha, Preemergence): 3
Plant response rating, Sugarbeets [12, 20]: 8
Sugarbeets plant response rating ([12]; Rate 62 g/ha, Postemergence): 9
Sugarbeets plant response rating ([12]; Rate 125 g/ha, Postemergence): 9
Plant response rating, Sugarbeets ([12]; Rate 125 g/ha, Preemergence): 10
Plant response rating, Sugarbeets ([12]; Rate 250 g/ha, Postemergence): 9
Plant response rating, Sugarbeets ([12]; Rate 250 g/ha, Preemergence): 10
Plant response rating, Velvetleaf [13, 20]: 3
Velvetleaf plant response rating ([13]; Rate 62 g/ha, Postemergence): 2
Velvetleaf plant response rating ([13]; Rate 125 g/ha, Postemergence): 3
Plant response rating, Velvetleaf ([13]; Rate 125 g/ha, Preemergence): 4
Plant response rating, Velvetleaf ([13]; Rate 250 g/ha, Postemergence): 5
Plant response rating, Velvetleaf ([13]; Rate 250 g/ha, Preemergence): 7
Plant response rating, Wheat [14, 20]: 0
Wheat plant response rating ([14]; Rate 62 g/ha, Postemergence): 3
Wheat plant response rating ([14]; Rate 125 g/ha, Postemergence): 3
Plant response rating, Wheat ([14]; Rate 125 g/ha, Preemergence): 0
Plant response rating, Wheat ([14]; Rate 250 g/ha, Postemergence): 4
Plant response rating, Wheat ([14]; Rate 250 g/ha, Preemergence): 3
Plant response rating, Wild oats [15, 20]: 1
Wild oats plant response rating ([15]; Rate 62 g/ha, Postemergence): 2
Wild oats plant response rating ([15]; Rate 125 g/ha, Postemergence): 2
Plant response rating, Wild oats ([15]; Rate 125 g/ha, Preemergence): 2
Plant response rating, Wild oats ([15]; Rate 250 g/ha, Postemergence): 4
Plant response rating, Wild oats ([15]; Rate 250 g/ha, Preemergence): 3
Barnyardgrass plant response rating [16, 21]: 2
Barnyardgrass plant response rating [16, 22]: 3
Plant response rating, Barnyardgrass [16, 23]: 6
Ducksalad plant response rating [17, 21]: 2
Ducksalad plant response rating [17, 22]: 2
Plant response rating, Ducksalad [17, 23]: 3
Rice plant response rating [18, 21]: 0
Rice plant response rating [18, 22]: 0
Plant response rating, Rice [18, 23]: 2
S. Flatsedge plant response rating [19, 21]: 3
S. Flatsedge plant response rating [19, 22]: 3
Plant response rating, S. Flatsedge [19, 23]: 4
